Experimental data from US12454675B2, “Method of increasing protein yield in mammalian cells in serum-free culture medium” (AGENCY FOR SCIENCE, TECHNOLOGY AND RESEARCH, priority 2016, dated 2025).

Experiments:
Format in all cases: cell-based, Chinese Hamster
CHO-DG44 cells = assay: Disaccharides to support growth of CHO-DG44 cells in HyQ PF-CHO; settings: 10 g/l sugar, 22 days
From the text: In (A) CHO-K1 cells were cultivated in a serum-free protein-free cell culture medium, HyQ PF-CHO, with 3.6 g/l of different sugars (maltose, sucrose, lactose, trehalose or glucose) as carbohydrate source. The viable cell densities (lined markers) and culture viabilities (marker only) of these cultures at the beginning and end of each passage over a period of 74 days were plotted. Cultures with sucrose, lactose or trehalose were terminated on Day 31 due to the decreased culture viabilities and reduced viable cell densities. The experiment was repeated with a seeding cell density of 1.0×10^6 cells/ml to obtain similar results. In (B) CHO-DG44 cells were cultivated with a seeding cell density of 1.0×10^6 cells/ml in a serum-free protein-free cell culture medium, HyQ PF-CHO, with 10 g/l of different sugars (maltose, sucrose, lactose, trehalose or glucose) as carbohydrate source. The viable cell densities (lined markers) and cell viabilities (marker only) of these cultures at the beginning and end of each passage over a period of 22 days were plotted. In (C) HEK293 cells were cultivated with a seeding cell density of 1.0×10^6 cells/ml in a protein-free chemically defined cell culture medium, PFCDM, with 10 g/l of different sugars (maltose, sucrose, lactose, trehalose or glucose) as carbohydrate source. The viable cell densities (lined markers) and cell viabilities (marker only) of these cultures at the beginning and end of each passage over a period of 22 days were plotted. Cultures with sucrose, lactose or trehalose were terminated on Day 14 due to the decreased culture viabilities and reduced viable cell densities.
To determine whether the same approach can be applied on other CHO cell lines, the use of disaccharides to support the growth of CHO-DG44 cells was evaluated. These cells were cultivated with 10 g/l of maltose, sucrose, lactose, trehalose or glucose as energy source in a serum-free protein-free cell culture medium HyQ PF-CHO. The viable cell densities and culture viabilities of these cultures at the beginning and end of each passage over a period of 22 days are shown in FIG. 1B.

SH87 cells [1] = assay: Specific maltose consumption rate, Monod model; settings: non-linear regression
Protocol: Specific substrate consumption rate (qs) between culture times t1 and t2 was determined by plotting substrate concentration (S) vs IVCD according to Equation 4. −qs=(St2−St1)/IVCD St2=−qs×IVCD+St1 Equation 4
Specific substrate consumption rate (qs) was fitted into a Monod model according to Equation 5, where qs_max is the maximum specific substrate consumption rate, S is the substrate concentration, and Ks is the affinity constant. qs=(qs_max×S)/(Ks+S) Equation 5
To characterize the maltose metabolism in the maltose supplemented cultures, the specific maltose consumption rates were obtained from plots of maltose concentrations against cumulative integral viable cell densities (IVCD) according to Equation 4. […] Comparing with published specific monosaccharide consumption rates using 3.6 g/l of monosaccharides (Altamirano et al., 2000), the maximum specific maltose consumption rate determined here is similar to the specific consumption rates of fructose (0.21 ng/cell/day) and galactose (0.21 ng/cell/day) while being lower than the measured specific consumption rates of glucose (0.76 ng/cell/day) and mannose (0.88 ng/cell/day). […] While the present inventors noted that these parameters can be more accurately determined in continuous cultures, it may be practically challenging at low maltose concentrations since growth rates will be low.

SH87 cells [2] = assay: SH87 fed-batch bioreactor cultures in PFCDM
Protocol: For each culture condition to be tested, SH87 was scaled up in PFCDM and inoculated into duplicate two (2) liter glass bioreactors (Sartorius, Germany) at a viable cell density of 3×10^5 cells/ml. Culture temperature, pH, dissolved oxygen and stir rate were maintained at 37° C., 7.1, 50% and 120 rpm respectively. The culture set points for glucose and glutamine were 0.5 g/l and 0.5 mM respectively, and predictive feeding was used to maintain these concentration levels by the addition of a concentrated DMEM-based protein-free feed and a 150 g/l glucose solution. Cell culture samples were collected and analyzed daily throughout the duration of the growth profile experiment until culture viabilities fell below 50%. When necessary, culture supernatant samples were stored at −20° C. for further analysis.
Since fed-batch culture is a popular mode for the manufacturing of monoclonal antibodies, the use of maltose in fed-batch cultures was evaluated. […] As such, it was evaluated whether maltose can be used to supplement glucose in fed-batch cultures to drive the cells towards a slower but more efficient metabolism: Using a common glucose concentration setpoint of 0.5 g/l, SH87 in media supplemented with 4 g/l glucose and 20 g/l maltose was fed daily with 50% of its calculated glucose requirement, while cultures of the same cells in media containing 4 g/l glucose was fed daily with 100% of its calculated glucose requirement. Duplicate bioreactor cultures were performed for each condition and the growth, biochemical and IgG titer profiles of these cultures were plotted in FIG. 7.
Additionally, the present disclosure investigated whether maltose supplementation in the feed medium can have further effect on fed-batch cultures with maltose-supplemented base medium. Using a common glucose concentration setpoint of 0.5 g/l, SH87 in media supplemented with 4 g/l glucose and 20 g/l maltose was fed daily with 50% of its calculated glucose requirement, using a sugar feed consisting of only glucose, or of glucose and maltose in a 1:1 ratio.

Q: Which “proliferation in serum-free protein-free culture medium with the sugar as sugar source” value (CHO-DG44 cells) does the source give for OC[C@H]1O[C@H](O[C@H]2[C@H](O)[C@@H](O)[C@H](O)O[C@@H]2CO)[C@H](O)[C@@H](O)[C@@H]1O [maltose] here?
A: can also proliferate

Q: And the “affinity constant (Ks)” value (SH87 cells [1])?
A: 7.03 g/L

Q: What about the “maximum specific maltose consumption rate (qs_max)” value (SH87 cells [1]) of the same compound?
A: 0.257 ng/cell/day

Q: And the “effect of additional maltose in the feed medium on cell growth, viability, glutamine, osmolality and IgG titer profiles” value (SH87 cells [2]; base 4 g/l glucose + 20 g/l maltose, feed glucose and maltose 1:1 vs glucose only)?
A: no additional effect

Q: What about the “improvement in maximum IgG titers vs glucose-only fed-batch cultures” value (SH87 cells [2]; fed-batch bioreactor) of the same compound?
A: 23%

Q: What about the “improvement in specific IgG productivities vs glucose-only fed-batch cultures” value (SH87 cells [2]; fed-batch bioreactor) of the same compound?
A: 55%
